From patent US9206199B2, “Inhibitors of the renal outer medullary potassium channel” (Merck Sharp & Dohme Corp., priority 2011, dated 2015)
Read-outs that look alike come from different tables or passages of the source.

How the values were obtained:
[1] = target: Kir1.1 (ROMK1) (Homo sapiens (Human), UniProt P48048); test: Electrophysiology Assay (IonWorks Quattro whole cell voltage clamp)
Procedure: Chinese hamster ovary cells stably expressing Kir1.1 channels were maintained in T-75 flasks in cell culture media in a humidified 10% CO2 incubator at 37° C. Prior to an experiment, Kir1.1 expression was induced by overnight incubation with 1 mM sodium butyrate. […] After centrifugation, the cell pellet was resuspended in approximately 4.0 mL of bath solution and placed in the IonWorks instrument. The intracellular solution consisted of (in mM): 80 K gluconate, 40 KCl, 20 KF, 3.2 MgCl2, 3 EGTA, 5 Hepes, pH 7.4. Electrical access to the cytoplasm was achieved by perforation in 0.13 mg/mL amphotericin B for 4 min. […] Voltage protocols and current recordings were performed using the IonWorks HT software/hardware system. Currents were sampled at 1 kHz. No correction for liquid junction potentials was used. The test pulse, consisting of a 100 ms step to 0 mV from a holding potential of −70 mV, followed by a 100 ms voltage ramp from −70 mV to +70 mV, was applied before and after a 6 min compound incubation period. Test compounds were prepared by diluting DMSO stock solutions into the bath solution at 3× the final concentration and placed in the instrument in 96-well polypropylene plates. Current amplitudes were measured using the IonWorks software.

[2] = target: hROMK (hKir1.1) (Homo sapiens (Human), UniProt P48048); test: Thallium Flux Assay; format: cell-based
hROMK (hKir1.1), sequence (P48048 whole entry): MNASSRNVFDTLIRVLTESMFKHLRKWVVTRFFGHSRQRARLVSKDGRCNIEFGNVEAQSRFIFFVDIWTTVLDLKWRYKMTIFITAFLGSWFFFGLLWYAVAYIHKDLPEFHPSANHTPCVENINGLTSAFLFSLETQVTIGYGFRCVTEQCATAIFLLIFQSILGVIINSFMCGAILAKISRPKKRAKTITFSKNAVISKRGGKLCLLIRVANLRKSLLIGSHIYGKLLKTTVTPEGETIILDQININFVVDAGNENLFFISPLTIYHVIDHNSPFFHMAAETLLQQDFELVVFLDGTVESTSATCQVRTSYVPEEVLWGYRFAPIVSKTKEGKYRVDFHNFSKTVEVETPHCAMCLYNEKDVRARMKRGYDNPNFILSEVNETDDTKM
Procedure: At >80% confluency, aspirate the media from the flask and rinse with 10 mL Calcium/Magnesium-free PBS. […] To dislodge the cell, gently bang the side of the flask with your hand. Triturate the cells completely and then transfer the cells to 25 mL complete media. Centrifuge at 1,500 rpm for 6 min followed by resuspension in complete growth media and determine cell concentration. […] Under ideal growth conditions and appropriate tissue culture practices, this cell line is stable for 40-45 passages. FluxOR Kit Components (Invitrogen F10017) • FluxOR™ Reagent (Component A) • FluxOR™ Assay Buffer (Component B)—10× Concentrate • PowerLoad™ Concentrate (Component C)—100× Concentrate • Probenecid (Component D)—Lyophilized sample is kept at −20° C. Water soluble, 100× after solubilization in 1 mL water. […] Store at 4° C. • Thallium sulfate (Tl2SO4) Concentrate (Component G)—50 mM in water. […]
The fluorescence intensity of wells containing 3 μM of a standard control ROMK inhibitor of the present invention is used to define the ROMK-sensitive component of thallium flux. Fluorescence in the presence of test compounds is normalized to control values to provide % fluorescence change.

Kir1.1 (ROMK1), sequence (P48048 whole entry): as above

## O=C1OCCc2cc([C@@H]3CN4CCN(C(=O)Cc5ccc(-n6cnnn6)nc5)C[C@H]4CO3)ccc21 [Example 1]
[1]
  IC50: 60 nM

## Cc1nc(-n2cnnn2)ccc1CC(=O)N1CCN2C[C@H](c3ccc(F)c(C#N)c3F)OC[C@@H]2C1 [Example 89, 2,6-difluoro-3-[(3S,9aS)-8-{[2-methyl-6-(1H-tetrazol-1-yl)pyridin-3-yl]acetyl}octahydropyrazino[2,1-c][1,4]oxazin-3-yl]benzonitrile]
[2]
  IC50: 70 nM

## N#Cc1cc([C@@H]2CN3CCN(C(=O)Cc4cnc(-n5cnnn5)nc4)C[C@H]3CO2)ccc1F [Example 142, 2-fluoro-5-[(3R,9aS)-8-{[2-(1H-tetrazol-1-yl)pyrimidin-5-yl]acetyl}octahydropyrazino[2,1-c][1,4]oxazin-3-yl]benzonitrile]
[2]; HEK293 cells stably expressing hROMK (hKir1.1), FLIPR-Tetra, read-out: Thallium Flux IC50
  IC50: 100 nM
